Laboratory results: patent publication US20230085307A1, “PYRIDAZINONE COMPOUND AND HERBICIDE” (NISSAN CHEMICAL CORPORATION, priority 2019, published 2023)

How the values were obtained:
[1] = tested on: late watergrass; test: Test Example 1: herbicidal activity, application before weed generation under submerged conditions (Table 16, symbol A); assay type: in vivo, late watergrass (Echinochloa oryzicola); details: amount of applied herbicide 320 g/ha
Source text: (§1) [Test Example 1] Herbicidal Activity Test by Application before Weed Generation under Submerged Conditions After alluvial soil was placed into 1/10000 are of Wagner pot, water was poured and mixed to form a submerged condition having a water depth of 4 cm. Seeds of late watergrass, Japanese bulrush, and oval-leafed pondweed were sowed in a mixed manner in the aforementioned pot, and then 2.5 leaf stage rice plant seedlings were transplanted thereto. On the day of sowing seeds, the emulsion agent of the compound of the present invention prepared according to Formulation Example 2 was diluted with water so as to achieve a predetermined herbicide amount, and the diluted emulsion agent was applied to the surface of the water. The pot was placed in a greenhouse at 25° C. to 30° C. for growth of the plants. Three weeks after the herbicide application, the effect of the herbicide on each plant was evaluated according to the following criteria. Evaluation Criteria 5: Herbicidal rate of 90% or more (almost completely withered) 4: Herbicidal rate of 70% or more and less than 90% 3: Herbicidal rate of 40% or more and less than 70% 2: Herbicidal rate of 20% or more and less than 40% 1: Herbicidal rate of 5% or more and less than 20% 0: Herbicidal rate of 5% or less (almost no effect)

[2] = tested on: oval-leafed pondweed; test: Test Example 1: herbicidal activity, application before weed generation under submerged conditions (Table 16, symbol C); assay type: in vivo, oval-leafed pondweed (Monochoria vaginalis); details: amount of applied herbicide 320 g/ha
Source text: as §1

[3] = tested on: rice flat sedge; test: Test Example 3: herbicidal effect by foliage application, Wagner pot (Table 18, symbol E); assay type: in vivo, rice flat sedge (Cyperus iria)
Procedure, shortened: (§2)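 Plants were sown in alluvial soil held under 0.1–0.5 cm standing water and grown 14 days in a greenhouse at 25–30 °C. An emulsifiable formulation, water-diluted to the set dose, was then sprayed onto the foliage, and effects were scored three weeks later using previously defined criteria.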

[4] = tested on: barnyard grass; test: Test Example 3: herbicidal effect by foliage application, Wagner pot (Table 18, symbol H); assay type: in vivo, barnyard grass (Echinochloa crus-galli)
Procedure, shortened: as §2

[5] = tested on: Japanese bulrush; test: Test Example 1: herbicidal activity, application before weed generation under submerged conditions (Table 16, symbol B); assay type: in vivo, Japanese bulrush (Schoenoplectus juncoides); details: amount of applied herbicide 320 g/ha
Source text: as §1

[6] = tested on: Chinese sprangletop; test: Test Example 3: herbicidal effect by foliage application, Wagner pot (Table 18, symbol D); assay type: in vivo, chinese sprangletop (Leptochloa chinensis)
Procedure, shortened: as §2

[7] = tested on: wild oat; test: Test Example 4: herbicidal effect by soil treatment (Table 19, symbol I); assay type: in vivo, wild oat (Avena fatua); details: AAH 320 g/ha
Procedure, shortened: (§3)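 Pre-emergence style soil spray: seeds under ~1.5 cm sterilized diluvial soil received a uniform coat of emulsion diluted to the predetermined herbicide amount. Greenhouse 25–30° C; readout at week three on previously defined criteria.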

[8] = tested on: persian speedwell; test: Test Example 5: herbicidal effect by foliage application, plastic box (Table 20, symbol R); assay type: in vivo, Persian speedwell (Veronica persica); details: foliage application, AAH 320 g/ha, three weeks after application
Procedure, shortened: (§4)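 Plants were sown into sterilized diluvial soil under about 1.5 cm cover and kept in a greenhouse at 25° C. to 30° C. Fourteen days on, foliage received an even spray of the diluted emulsion. Herbicidal or crop effect was judged three weeks afterwards.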

[9] = tested on: redroot pigweed; test: Test Example 5: herbicidal effect by foliage application, plastic box (Table 20, symbol N); assay type: in vivo, redroot pigweed (Amaranthus retroflexus); details: foliage application, AAH 320 g/ha, three weeks after application
Procedure, shortened: as §4

[10] = tested on: southern crabgrass; test: Test Example 4: herbicidal effect by soil treatment (Table 19, symbol F); assay type: in vivo, southern crabgrass (Digitaria ciliaris); details: AAH 320 g/ha
Procedure, shortened: as §3

[11] = tested on: green foxtail; test: Test Example 4: herbicidal effect by soil treatment (Table 19, symbol G); assay type: in vivo, green foxtail (Setaria viridis); details: AAH 320 g/ha
Procedure, shortened: as §3

[12] = tested on: green foxtail; test: Test Example 5: herbicidal effect by foliage application, plastic box (Table 20, symbol G); assay type: in vivo, green foxtail (Setaria viridis); details: foliage application, AAH 320 g/ha, three weeks after application
Procedure, shortened: as §4

[13] = tested on: lambsquarters; test: Test Example 5: herbicidal effect by foliage application, plastic box (Table 20, symbol O); assay type: in vivo, lambsquarters (Chenopodium album); details: foliage application, AAH 320 g/ha, three weeks after application
Procedure, shortened: as §4

[14] = tested on: lambsquarters; test: Test Example 4: herbicidal effect by soil treatment (Table 19, symbol O); assay type: in vivo, lambsquarters (Chenopodium album); details: AAH 320 g/ha
Procedure, shortened: as §3

[15] = tested on: southern crabgrass; test: Test Example 5: herbicidal effect by foliage application, plastic box (Table 20, symbol F); assay type: in vivo, southern crabgrass (Digitaria ciliaris); details: foliage application, AAH 320 g/ha, three weeks after application
Procedure, shortened: as §4

[16] = tested on: chickweed; test: Test Example 4: herbicidal effect by soil treatment (Table 19, symbol P); assay type: in vivo, common chickweed (Stellaria media); details: AAH 320 g/ha
Procedure, shortened: as §3

[17] = tested on: windgrass; test: Test Example 4: herbicidal effect by soil treatment (Table 19, symbol L); assay type: in vivo, windgrass (Apera spica-venti); details: AAH 320 g/ha
Procedure, shortened: as §3

[18] = tested on: barnyard grass; test: Test Example 4: herbicidal effect by soil treatment (Table 19, symbol H); assay type: in vivo, barnyard grass (Echinochloa crus-galli); details: AAH 320 g/ha
Procedure, shortened: as §3

[19] = tested on: barnyard grass; test: Test Example 5: herbicidal effect by foliage application, plastic box (Table 20, symbol H); assay type: in vivo, barnyard grass (Echinochloa crus-galli); details: foliage application, AAH 320 g/ha, three weeks after application
Procedure, shortened: as §4

[20] = tested on: blackgrass; test: Test Example 5: herbicidal effect by foliage application, plastic box (Table 20, symbol J); assay type: in vivo, blackgrass (Alopecurus myosuroides); details: foliage application, AAH 320 g/ha, three weeks after application
Procedure, shortened: as §4

[21] = tested on: Italian ryegrass; test: Test Example 5: herbicidal effect by foliage application, plastic box (Table 20, symbol K); assay type: in vivo, Italian ryegrass (Lolium multiflorum); details: foliage application, AAH 320 g/ha, three weeks after application
Procedure, shortened: as §4

[22] = tested on: Italian ryegrass; test: Test Example 4: herbicidal effect by soil treatment (Table 19, symbol K); assay type: in vivo, Italian ryegrass (Lolium multiflorum); details: AAH 320 g/ha
Procedure, shortened: as §3

[23] = tested on: redroot pigweed; test: Test Example 4: herbicidal effect by soil treatment (Table 19, symbol N); assay type: in vivo, redroot pigweed (Amaranthus retroflexus); details: AAH 320 g/ha
Procedure, shortened: as §3

[24] = tested on: persian speedwell; test: Test Example 4: herbicidal effect by soil treatment (Table 19, symbol R); assay type: in vivo, Persian speedwell (Veronica persica); details: AAH 320 g/ha
Procedure, shortened: as §3

[25] = tested on: blackgrass; test: Test Example 4: herbicidal effect by soil treatment (Table 19, symbol J); assay type: in vivo, blackgrass (Alopecurus myosuroides); details: AAH 320 g/ha
Procedure, shortened: as §3

[26] = tested on: wild oat; test: Test Example 5: herbicidal effect by foliage application, plastic box (Table 20, symbol I); assay type: in vivo, wild oat (Avena fatua); details: foliage application, AAH 320 g/ha, three weeks after application
Procedure, shortened: as §4

[27] = tested on: windgrass; test: Test Example 5: herbicidal effect by foliage application, plastic box (Table 20, symbol L); assay type: in vivo, windgrass (Apera spica-venti); details: foliage application, AAH 320 g/ha, three weeks after application
Procedure, shortened: as §4

[28] = tested on: velvetleaf; test: Test Example 5: herbicidal effect by foliage application, plastic box (Table 20, symbol M); assay type: in vivo, velvetleaf (Abutilon theophrasti); details: foliage application, AAH 320 g/ha, three weeks after application
Procedure, shortened: as §4

[29] = tested on: chickweed; test: Test Example 5: herbicidal effect by foliage application, plastic box (Table 20, symbol P); assay type: in vivo, common chickweed (Stellaria media); details: foliage application, AAH 320 g/ha, three weeks after application
Procedure, shortened: as §4

[30] = tested on: velvetleaf; test: Test Example 4: herbicidal effect by soil treatment (Table 19, symbol M); assay type: in vivo, velvetleaf (Abutilon theophrasti); details: AAH 320 g/ha
Procedure, shortened: as §3

[31] = amount of applied herbicide 320 g/ha

Cc1nn(C)c(=O)c(-c2c(-c3ccc(OC(F)(F)F)cc3)oc3ccc(F)cc23)c1O [9-033]
Herbicidal effect, A: late watergrass [1]: 2 (Herbicidal rate of 20% or more and less than 40%)
Herbicidal effect, C: oval-leafed pondweed [2]: 0 (Herbicidal rate of 5% or less (almost no effect))
Herbicidal effect on E (rice flat sedge), foliage application [3, 31]: 5 (Herbicidal rate of 90% or more (almost completely withered))
Herbicidal effect on H (barnyard grass), foliage application [4, 31]: 4 (Herbicidal rate of 70% or more and less than 90%)
Herbicidal effect, B: Japanese bulrush [5]: 0 (Herbicidal rate of 5% or less (almost no effect))
Herbicidal effect on D (Chinese sprangletop), foliage application [6, 31]: 3 (Herbicidal rate of 40% or more and less than 70%)

Cc1nn(C)c(=O)c(-c2c(-c3ccccc3OCC(F)F)sc3ccccc23)c1O [1-116]
I: wild oat, herbicidal effect rating [7]: 1 (Herbicidal rate of 5% or more and less than 20%)
R: persian speedwell, herbicidal effect [8]: 5 (Herbicidal rate of 90% or more (almost completely withered))
N: redroot pigweed, herbicidal effect [9]: 5 (Herbicidal rate of 90% or more (almost completely withered))
F: southern crabgrass, herbicidal effect rating [10]: 0 (Herbicidal rate of 5% or less (almost no effect))
G: green foxtail, herbicidal effect rating [11]: 0 (Herbicidal rate of 5% or less (almost no effect))
G: green foxtail, herbicidal effect [12]: 5 (Herbicidal rate of 90% or more (almost completely withered))
O: lambsquarters, herbicidal effect [13]: 4 (Herbicidal rate of 70% or more and less than 90%)
O: lambsquarters, herbicidal effect rating [14]: 3 (Herbicidal rate of 40% or more and less than 70%)
F: southern crabgrass, herbicidal effect [15]: 4 (Herbicidal rate of 70% or more and less than 90%)
P: chickweed, herbicidal effect rating [16]: 5 (Herbicidal rate of 90% or more (almost completely withered))
L: windgrass, herbicidal effect rating [17]: 3 (Herbicidal rate of 40% or more and less than 70%)
H: barnyard grass, herbicidal effect rating [18]: 0 (Herbicidal rate of 5% or less (almost no effect))
H: barnyard grass, herbicidal effect [19]: 4 (Herbicidal rate of 70% or more and less than 90%)
J: blackgrass, herbicidal effect [20]: 4 (Herbicidal rate of 70% or more and less than 90%)
herbicidal effect on E (rice flat sedge), rating 0-5 ([3]; 320 g/ha): 4 (Herbicidal rate of 70% or more and less than 90%)
K: Italian ryegrass, herbicidal effect [21]: 2 (Herbicidal rate of 20% or more and less than 40%)
herbicidal effect on H (barnyard grass), rating 0-5 ([4]; 320 g/ha): 5 (Herbicidal rate of 90% or more (almost completely withered))
K: Italian ryegrass, herbicidal effect rating [22]: 0 (Herbicidal rate of 5% or less (almost no effect))
N: redroot pigweed, herbicidal effect rating [23]: 5 (Herbicidal rate of 90% or more (almost completely withered))
R: persian speedwell, herbicidal effect rating [24]: 5 (Herbicidal rate of 90% or more (almost completely withered))
J: blackgrass, herbicidal effect rating [25]: 1 (Herbicidal rate of 5% or more and less than 20%)
I: wild oat, herbicidal effect [26]: 4 (Herbicidal rate of 70% or more and less than 90%)
L: windgrass, herbicidal effect [27]: 5 (Herbicidal rate of 90% or more (almost completely withered))
M: velvetleaf, herbicidal effect [28]: 5 (Herbicidal rate of 90% or more (almost completely withered))
P: chickweed, herbicidal effect [29]: 5 (Herbicidal rate of 90% or more (almost completely withered))
M: velvetleaf, herbicidal effect rating [30]: 2 (Herbicidal rate of 20% or more and less than 40%)
herbicidal effect on D (Chinese sprangletop), rating 0-5 ([6]; 320 g/ha): 2 (Herbicidal rate of 20% or more and less than 40%)
